Reference: the supplement of paper PMC10307832

How the values were obtained:
Experiment in all cases: relative viability (nuclei count vs DMSO), 5 days (fraction); higher = more cells survive
NCI-H460 = tested on: NCI-H460
Outline: (§1)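 Each reported value is a median over duplicate plates. It expresses relative viability: treated-well nuclei count divided by vehicle-well nuclei count. Lung cancer cell lines in 1536-well plates were dosed by pin tool a day after seeding, alone with one drug or with a fixed anchor-drug dose plus five library-drug doses (not always all listed) in √10 steps, and nuclei were counted after 5 days.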

NCI-H2126 = tested on: NCI-H2126
Outline: as §1

LCLC-97TM1 = tested on: LCLC-97TM1
Outline: as §1

HARA = tested on: HARA
Outline: as §1

NCI-H23 = tested on: NCI-H23
Outline: as §1

EMC-BAC-2 = tested on: EMC-BAC-2
Outline: as §1

NCI-H1944 = tested on: NCI-H1944
Outline: as §1

PC-3 [JPC-3] = tested on: PC-3 [JPC-3]
Outline: as §1

NCI-H1792 = tested on: NCI-H1792
Outline: as §1

NCI-H441 = tested on: NCI-H441
Outline: as §1

NCI-H1793 = tested on: NCI-H1793
Outline: as §1

NCI-H1437 = tested on: NCI-H1437
Outline: as §1

NCI-H322M = tested on: NCI-H322M
Outline: as §1

NCI-H522 = tested on: NCI-H522
Outline: as §1

SW 900 = tested on: SW 900
Outline: as §1

NCI-H1915 = tested on: NCI-H1915
Outline: as §1

HCC-827 = tested on: HCC-827
Outline: as §1

HCC-15 = tested on: HCC-15
Outline: as §1

ChaGo-K-1 = tested on: ChaGo-K-1
Outline: as §1

LU99A = tested on: LU99A
Outline: as §1

EKVX = tested on: EKVX
Outline: as §1

LC-2-ad = tested on: LC-2-ad
Outline: as §1

H3255 = tested on: H3255
Outline: as §1

SK-LU-1 = tested on: SK-LU-1
Outline: as §1

NCI-H661 = tested on: NCI-H661
Outline: as §1

Question: Which results are given for `CCCCCCCCCCCC1=C(O)C(=O)C=C(O)C1=O` [Embelin] + COc1cccc2cc(-c3nc([C@H]4CC[C@H](C(=O)O)CC4)n4ncnc(N)c34)[nH]c12 [OSI-027] (partner 0.5 µM)?
Answer: relative viability (NCI-H460; first compound 0.08 µM): 0.683; relative viability (NCI-H460; first compound 0.8 µM): 0.88; relative viability (NCI-H460; first compound 2.53 µM): 0.958; relative viability (NCI-H460; first compound 8 µM): 0.751; relative viability (NCI-H2126; first compound 0.08 µM): 0.666; relative viability (NCI-H2126; first compound 0.8 µM): 0.746; relative viability (NCI-H2126; first compound 2.53 µM): 0.804; relative viability (NCI-H2126; first compound 8 µM): 0.795; relative viability (LCLC-97TM1; first compound 0.08 µM): 0.376; relative viability (LCLC-97TM1; first compound 0.8 µM): 0.638; relative viability (LCLC-97TM1; first compound 2.53 µM): 0.494; relative viability (LCLC-97TM1; first compound 8 µM): 0.589; relative viability (HARA; first compound 0.08 µM): 0.5; relative viability (HARA; first compound 0.8 µM): 0.701; relative viability (HARA; first compound 2.53 µM): 0.601; relative viability (HARA; first compound 8 µM): 0.526; relative viability (NCI-H23; first compound 0.08 µM): 0.695; relative viability (NCI-H23; first compound 0.8 µM): 0.672; relative viability (NCI-H23; first compound 2.53 µM): 0.582; relative viability (NCI-H23; first compound 8 µM): 0.562; relative viability (EMC-BAC-2; first compound 0.08 µM): 0.375; relative viability (EMC-BAC-2; first compound 0.8 µM): 0.47; relative viability (EMC-BAC-2; first compound 2.53 µM): 0.349; relative viability (EMC-BAC-2; first compound 8 µM): 0.353; relative viability (NCI-H1944; first compound 0.08 µM): 0.41; relative viability (NCI-H1944; first compound 0.8 µM): 0.462; relative viability (NCI-H1944; first compound 2.53 µM): 0.358; relative viability (NCI-H1944; first compound 8 µM): 0.425; relative viability (PC-3 [JPC-3]; first compound 0.08 µM): 0.759; relative viability (PC-3 [JPC-3]; first compound 0.8 µM): 0.752; relative viability (PC-3 [JPC-3]; first compound 2.53 µM): 0.829; relative viability (PC-3 [JPC-3]; first compound 8 µM): 0.867; relative viability (NCI-H1792; first compound 0.08 µM): 0.746; relative viability (NCI-H1792; first compound 0.8 µM): 0.884; relative viability (NCI-H1792; first compound 2.53 µM): 0.711; relative viability (NCI-H1792; first compound 8 µM): 0.838; relative viability (NCI-H441; first compound 0.08 µM): 0.688; relative viability (NCI-H441; first compound 0.8 µM): 0.742; relative viability (NCI-H441; first compound 2.53 µM): 0.673; relative viability (NCI-H441; first compound 8 µM): 0.647; relative viability (NCI-H1793; first compound 0.08 µM): 0.281; relative viability (NCI-H1793; first compound 0.8 µM): 0.367; relative viability (NCI-H1793; first compound 2.53 µM): 0.237; relative viability (NCI-H1793; first compound 8 µM): 0.243; relative viability (NCI-H1437; first compound 0.08 µM): 0.859; relative viability (NCI-H1437; first compound 0.8 µM): 1.01; relative viability (NCI-H1437; first compound 2.53 µM): 0.934; relative viability (NCI-H1437; first compound 8 µM): 0.822; relative viability (NCI-H322M; first compound 0.08 µM): 0.523; relative viability (NCI-H322M; first compound 0.8 µM): 0.744; relative viability (NCI-H322M; first compound 2.53 µM): 0.645; relative viability (NCI-H322M; first compound 8 µM): 0.512; relative viability (NCI-H522; first compound 0.08 µM): 0.677; relative viability (NCI-H522; first compound 0.8 µM): 0.714; relative viability (NCI-H522; first compound 2.53 µM): 0.752; relative viability (NCI-H522; first compound 8 µM): 0.641; relative viability (SW 900; first compound 0.08 µM): 0.496; relative viability (SW 900; first compound 0.8 µM): 0.541; relative viability (SW 900; first compound 2.53 µM): 0.553; relative viability (SW 900; first compound 8 µM): 0.347; relative viability (NCI-H1915; first compound 0.08 µM): 0.679; relative viability (NCI-H1915; first compound 0.8 µM): 0.707; relative viability (NCI-H1915; first compound 2.53 µM): 0.602; relative viability (NCI-H1915; first compound 8 µM): 0.653; relative viability (HCC-827; first compound 0.08 µM): 0.749; relative viability (HCC-827; first compound 0.8 µM): 0.797; relative viability (HCC-827; first compound 2.53 µM): 0.836; relative viability (HCC-827; first compound 8 µM): 0.866; relative viability (HCC-15; first compound 0.08 µM): 0.666; relative viability (HCC-15; first compound 0.8 µM): 0.758; relative viability (HCC-15; first compound 2.53 µM): 0.721; relative viability (HCC-15; first compound 8 µM): 0.625; relative viability (ChaGo-K-1; first compound 0.08 µM): 0.572; relative viability (ChaGo-K-1; first compound 0.8 µM): 0.636; relative viability (ChaGo-K-1; first compound 2.53 µM): 0.699; relative viability (ChaGo-K-1; first compound 8 µM): 0.556; relative viability (LU99A; first compound 0.08 µM): 0.323; relative viability (LU99A; first compound 0.8 µM): 0.358; relative viability (LU99A; first compound 2.53 µM): 0.27; relative viability (LU99A; first compound 8 µM): 0.282; relative viability (EKVX; first compound 0.08 µM): 0.715; relative viability (EKVX; first compound 0.8 µM): 0.677; relative viability (EKVX; first compound 2.53 µM): 0.789; relative viability (EKVX; first compound 8 µM): 0.743; relative viability (LC-2-ad; first compound 0.08 µM): 0.85; relative viability (LC-2-ad; first compound 0.8 µM): 1.02; relative viability (LC-2-ad; first compound 2.53 µM): 0.97; relative viability (LC-2-ad; first compound 8 µM): 0.516; relative viability (H3255; first compound 0.08 µM): 0.586; relative viability (H3255; first compound 0.8 µM): 0.628; relative viability (H3255; first compound 2.53 µM): 0.63; relative viability (H3255; first compound 8 µM): 0.587; relative viability (SK-LU-1; first compound 0.08 µM): 0.409; relative viability (SK-LU-1; first compound 0.8 µM): 0.373; relative viability (SK-LU-1; first compound 2.53 µM): 0.383; relative viability (SK-LU-1; first compound 8 µM): 0.34; relative viability (NCI-H661; first compound 0.08 µM): 0.763; relative viability (NCI-H661; first compound 0.8 µM): 0.784; relative viability (NCI-H661; first compound 2.53 µM): 0.8; relative viability (NCI-H661; first compound 8 µM): 0.769
